These results are taken from patent publication US6420110B1, “Methods and reagents for isolating biologically active peptides” (GPC Biotech, Inc., priority 1998, dated 2002).

The test deals with bovine capillary endothelial (BCE) cells. The test is described as follows: Inhibition of bFGF stimulated BCE cell proliferation in Transwells (CyQUANT). It counts as cell-based. As to conditions: 1 ng/ml bFGF, 72 hrs. As for the experimental part: COS-7 cells were transfected with pAM9-myc, pAM9-RGD and pAM9-K1 plasmids, respectively, that direct the expression and secretion of the Myc epitope-6xHis, the RGD and the angiostatin first kringle domain peptides. The transfected COS-7 cells were co-incubated in Transwells with BCE cells whose proliferation was stimulated by 1 ng/ml bFGF. As controls, untransfected COS-7 cells and bFGF stimulated BCE cells were similarly co-incubated and synthetic Myc-6xHis and RGD peptides as well as purified K1 were added to the media at the indicated concentrations. The proliferation of the bFGF stimulated BCE cells were measured 72 hrs later using the fluorescent CyQUANT proliferation kit (Molecular Probes).

Take “CDCRGDCFC [RGD peptide, positive control]”: the “inhibition of bFGF stimulated BCE cell proliferation” value runs as follows: (peptide secreted from transfected COS-7 cells co-incubated in Transwells) “inhibited”; (synthetic or purified peptide added to the media, untransfected COS-7 cells co-incubated) “inhibited”.
